pIC50: −log10 of the molar value. Residues, ends and D or L forms follow the SMILES beside them. *: point of attachment. Paclitaxel(2'-O-succinyl) = CC(=O)O[C@H]1C(=O)[C@@]2(C)[C@H]([C@H](OC(=O)c3ccccc3)[C@]3(O)C[C@H](OC(=O)[C@H](OC(=O)CCC(=O)*)[C@@H](NC(=O)c4ccccc4)c4ccccc4)C(C)=C1C3(C)C)[C@]1(OC(C)=O)CO[C@@H]1C[C@@H]2O
Key:
[1] = tested on: SK-N-SH (neuroblastome) cells; assay: Cytotoxicity assay (MTT), SK-N-SH cells; assay type: cell-based; details: Homo sapiens, MTT test, read-out: IC50 (concentration resulting in 50% inhibition of growth)
Experimental: (§1) 9 L (glioblastome), MCF-7 and MDA-MB-435 (breast cancer), and SK-N-SH (neuroblastome) cells were obtained commercially from ATCC. The cells are seeded at approximately 10^4 cells per well, 24 h before addition of the products. They are then at 60-80% confluence on the day of the experiment. The cells are maintained in culture at 37° C. in an atmosphere at 95% humidity and 5% CO2 in an OptiMem® medium.
(§2) The cells are incubated either with free Taxol or with the vectorized Taxol at increasing concentrations for 48 hours to 72 hours. At the end of the culturing period, MTT (3-(4,5-dimethylthiazole-2-yl)-2,5-diphenyltetrazolium bromide) is added to the wells and the culture plates are then incubated for 4 hours in an incubator. The resulting crystalline deposit of formazan is then dissolved by addition of 200 μl of DMF/SDS. The optical density (OD) is measured at 550 nm (reference 630 nm) using a microplate reader. […]
(§3) The sensitivity of the 9L, MCF-7, MDA-MB-435 and SK-N-SH cells to free Taxol and to the vectorized Taxol was measured by the MTT test under the experimental conditions defined above for which the relationship between the optical density and the number of viable cells is linear.
(§4) These cells are incubated with increasing concentrations of product and, after […] of incubation, cell survival is measured by the MTT test.

[2] = tested on: MCF-7 (breast cancer) cells; assay: Cytotoxicity assay (MTT), MCF-7 cells; assay type: cell-based; details: Homo sapiens, MCF7, MTT test, read-out: IC50 (concentration resulting in 50% inhibition of growth)
Experimental: as §1, §2, §3, §4

[3] = tested on: MDA-MB-435 (breast cancer) cells; assay: Cytotoxicity assay (MTT), MDA-MB-435 cells; assay type: cell-based; details: Homo sapiens, MTT test, read-out: IC50 (concentration resulting in 50% inhibition of growth)
Experimental: as §1, §2, §3, §4

9 L (glioblastome) cells = assay: Cytotoxicity assay (MTT), 9L cells; assay type: cell-based; details: for pIC50: 9L cells, MTT test, read-out: IC50 (concentration resulting in 50% inhibition of growth)
Experimental: as §1
The cells are incubated either with free Taxol or with the vectorized Taxol at increasing concentrations for 48 hours to 72 hours. At the end of the culturing period, MTT (3-(4,5-dimethylthiazole-2-yl)-2,5-diphenyltetrazolium bromide) is added to the wells and the culture plates are then incubated for 4 hours in an incubator. The resulting crystalline deposit of formazan is then dissolved by addition of 200 μl of DMF/SDS. The optical density (OD) is measured at 550 nm (reference 630 nm) using a microplate reader.
Graphic representation of the percentages of OD of the treated wells as a function of the concentration of products makes it possible to determine the IC50. This corresponds to the concentration of the product which inhibits 50% of growth.
as §3, §4

blood/brain barrier = assay: In situ brain perfusion (BBB penetration, Kin); assay type: in vivo; details: mouse, in situ brain perfusion for 60 seconds in buffer, 14C-labelled Taxol, FIG. 2
Experimental: Mice (20-25 g, Iffa-Credo, Arbresle, France) are anesthetized. After exposure of the common carotid, the right external carotid artery is ligated at the level of the bifurcation with the internal carotid and the common carotid is ligated between the heart and the site of implantation of the catheter (polyethylene catheter, ID: 0.76). This catheter, prefilled with a solution of heparin (100 units/ml), is inserted into the common carotid. The mice are perfused with the perfusion buffer (128 mM NaCl, 24 mM NaHCO3, 4.2 mM KCl, 2.4 mM NaH2PO4, 1.5 mM CaCl2, 0.9 mM MgSO4 and 9 mM D-glucose) This buffer is filtered and then a mixture containing 95% 02/5% CO2 is bubbled in order to maintain the pH close to 7.4 and to provide the brain with oxygen during the perfusion.
The mice are perfused with the buffer containing free Taxol or vectorized Taxol. In each product, the Taxol is radiolabeled with carbon 14 (specific activity: 55 mCi/mmole, Sigma, France). Just before the beginning of perfusion, the heart is stopped by sectioning the ventricles, in order to avoid reflux of the perfusate during perfusion. The right hemisphere is then perfused at a rate of 10 ml/min for 60 seconds, after which the mouse is decapitated. The amount of radioactivity in the right hemisphere is then measured and the brain penetration (Kin) is calculated. […]

Compound	pIC50 [1]	pIC50 [2]	pIC50 [3]	pIC50 (9 L (glioblastome) cells)	increase of passage into the brain (Kin) versus free Taxol (blood/brain barrier)	solubility (physchem) [µg/mL]	times more active than the free Taxol (9 L (glioblastome) cells; 9 L cell line, ratio of IC50)
CC(=O)O[C@H]1C(=O)[C@@]2(C)[C@H]([C@H](OC(=O)c3ccccc3)[C@]3(O)C[C@H](OC(=O)[C@H](O)[C@@H](NC(=O)c4ccccc4)c4ccccc4)C(C)=C1C3(C)C)[C@]1(OC(C)=O)CO[C@@H]1C[C@@H]2O [Free Taxol, paclitaxel]	7.06	7.38	7.02	5.46			
CC(=O)O[C@H]1C(=O)[C@@]2(C)[C@H]([C@H](OC(=O)c3ccccc3)[C@]3(O)C[C@H](OC(=O)[C@H](OC(=O)CCC(=O)N[C@@H](CCCNC(=N)N)C(=O)N[C@@H](CCCNC(=N)N)C(=O)N[C@@H](CC(C)C)C(=O)N[C@@H](CO)C(=O)N[C@@H](Cc4ccc(O)cc4)C(=O)N[C@@H](CO)C(=O)N[C@@H](CCCNC(=N)N)C(=O)N[C@@H](CCCNC(=N)N)C(=O)N[C@@H](CCCNC(=N)N)C(=O)N[C@@H](Cc4ccccc4)C(=O)O)[C@@H](NC(=O)c4ccccc4)c4ccccc4)C(C)=C1C3(C)C)[C@]1(OC(C)=O)CO[C@@H]1C[C@@H]2O [Taxol-SynB3] ({Paclitaxel(2'-O-succinyl)}-RRLSYSRRRF-OH; N-terminus and C-terminus assumed)				6.22	approximately 12 fold	> 10000	approximately 5 times

Source: US20060293242A1, “Transporting of taxoid derivatives through the blood brain barrier” (priority 2001, published 2006)
